The text below walks through data of the supplement of paper PMC6045584.

Compound in experiment [1]: COc1cccc2c1C(=O)c1c(O)c3c(c(O)c1C2=O)C[C@@](O)(C(=O)CO)C[C@@H]3O[C@H]1C[C@H](N)[C@H](O)[C@H](C)O1 [DOXORUBICIN]
Kind of experiment: surviving fraction relative to DMSO-only wells; higher = less growth inhibition. The conditions noted are these: exposure time: 5 days. Summed up: (§1)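 Inhibitors were tested at 0.5, 1, 5, 10, 50, 100, 500 and 1000 nM, applied continuously for five days beginning 24 hours after log-phase tumour cells were seeded at 250–500 per well in 384-well plates. CellTiter-Glo luminescence served as the viability measure, expressed as surviving fraction against the median of DMSO-only wells. Each line, screened three times, was kept only with replicate Pearson r >0.7 and median Z' >0.3.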

Compound in experiment [2]: CS(=O)(=O)c1ccc(C(=O)Nc2ccc(Cl)c(-c3ccccn3)c2)c(Cl)c1 [VISMODEGIB]
The description is as above. The settings on record: exposure time: 5 days. A digest of the protocol:
as §1

± gives the standard deviation of the averaged measurements.

With SYO1 SYNOVIAL, the surviving fraction was found to be 0.944 ± 0.065 in experiment [1] (0.5 nM); 0.906 ± 0.017 in experiment [1] (1 nM); 0.39 ± 0.066 in experiment [1] (5 nM); 0.176 ± 0.05 in experiment [1] (10 nM); 0.0563 ± 0.015 in experiment [1] (50 nM); 0.0384 ± 0.0093 in experiment [1] (100 nM). The surviving fraction in experiment [1] (500 nM) came to 0.0205 ± 0.00087; in experiment [1] (1000 nM), 0.0309 ± 0.0013; in experiment [2] (0.5 nM), 0.953 ± 0.052; in experiment [2] (1 nM), 0.978 ± 0.049; in experiment [2] (5 nM), 0.992 ± 0.014; in experiment [2] (10 nM), 0.994 ± 0.054. Moreover, the surviving fraction in experiment [2] (50 nM) was found to be 0.879 ± 0.042; in experiment [2] (100 nM), 0.882 ± 0.041; in experiment [2] (500 nM), 0.884 ± 0.045; in experiment [2] (1000 nM), 0.898 ± 0.048.
On to T47D BREAST, for which the surviving fraction in experiment [1] (0.5 nM) amounted to 1.03 ± 0.03; in experiment [1] (1 nM) it was 1 ± 0.038; in experiment [1] (5 nM), 0.892 ± 0.018; in experiment [1] (10 nM), 0.673 ± 0.064; in experiment [1] (50 nM) it was 0.708 ± 0.021; in experiment [1] (100 nM), 0.518 ± 0.023. Moreover, the surviving fraction came to 0.197 ± 0.033 in experiment [1] (500 nM); 0.0751 ± 0.0032 in experiment [1] (1000 nM); 0.993 ± 0.034 in experiment [2] (0.5 nM); 0.965 ± 0.049 in experiment [2] (1 nM); 1.01 ± 0.025 in experiment [2] (5 nM); 0.988 ± 0.012 in experiment [2] (10 nM). Also, the surviving fraction is 0.99 ± 0.035 in experiment [2] (50 nM), 1.07 ± 0.015 in experiment [2] (100 nM), 0.983 ± 0.013 in experiment [2] (500 nM) and 0.989 ± 0.025 in experiment [2] (1000 nM).
As to U2OS BONE, the surviving fraction in experiment [1] (0.5 nM) was 1.04 ± 0.053; in experiment [1] (1 nM), 1.01 ± 0.015; in experiment [1] (5 nM), 0.86 ± 0.018; in experiment [1] (10 nM), 0.72 ± 0.05; in experiment [1] (50 nM), 0.606 ± 0.037; in experiment [1] (100 nM), 0.376 ± 0.013. Also, the surviving fraction in experiment [1] (500 nM) worked out at 0.04 ± 0.0017; in experiment [1] (1000 nM), 0.0373 ± 0.0021; in experiment [2] (0.5 nM) it was 1.04 ± 0.019; in experiment [2] (1 nM) it was 1.07 ± 0.042; in experiment [2] (5 nM), 1.09 ± 0.012; in experiment [2] (10 nM), 1.05 ± 0.013. For the same test system, the surviving fraction in experiment [2] (50 nM) came to 1.02 ± 0.065; in experiment [2] (100 nM) it was 1.04 ± 0.046; in experiment [2] (500 nM) it was 1.05 ± 0.028; in experiment [2] (1000 nM), 1.07 ± 0.024.
On to VCAP PROSTATE, for which the surviving fraction in experiment [1] (0.5 nM) stood at 1.18 ± 0.094; in experiment [1] (1 nM), 0.982 ± 0.1; in experiment [1] (5 nM), 1.1 ± 0.073; in experiment [1] (10 nM), 0.51 ± 0.028; in experiment [1] (50 nM) it was 1.02 ± 0.052; in experiment [1] (100 nM), 0.291 ± 0.0036. For the same test system, the surviving fraction in experiment [1] (500 nM) stood at 0.0377 ± 0.0064; in experiment [1] (1000 nM) it was 0.0397 ± 0.015; in experiment [2] (0.5 nM), 1.04 ± 0.046; in experiment [2] (1 nM) it was 1 ± 0.11; in experiment [2] (5 nM), 1.1 ± 0.18; in experiment [2] (10 nM) it was 1.13 ± 0.22. In addition, the surviving fraction stood at 0.905 ± 0.033 in experiment [2] (50 nM), 1.08 ± 0.12 in experiment [2] (100 nM), 0.914 ± 0.066 in experiment [2] (500 nM) and 0.981 ± 0.1 in experiment [2] (1000 nM).
Take VP229 BREAST: the surviving fraction was determined as 1.18 ± 0.067 in experiment [1] (0.5 nM); 1.11 ± 0.14 in experiment [1] (1 nM); 1 ± 0.11 in experiment [1] (5 nM); 0.931 ± 0.022 in experiment [1] (10 nM); 0.835 ± 0.11 in experiment [1] (50 nM); 0.567 ± 0.027 in experiment [1] (100 nM). In addition, the surviving fraction in experiment [1] (500 nM) is 0.569 ± 0.13; in experiment [1] (1000 nM), 0.233 ± 0.056; in experiment [2] (0.5 nM), 1.27 ± 0.025; in experiment [2] (1 nM) it was 1.1 ± 0.065; in experiment [2] (5 nM), 1.15 ± 0.13; in experiment [2] (10 nM) it was 1.14 ± 0.082. Moreover, the surviving fraction turned out to be 0.972 ± 0.14 in experiment [2] (50 nM), 1.01 ± 0.017 in experiment [2] (100 nM), 1.15 ± 0.16 in experiment [2] (500 nM) and 1.11 ± 0.014 in experiment [2] (1000 nM).
On to YAMATO SYNOVIAL, for which the surviving fraction in experiment [1] (0.5 nM) was found to be 1.1 ± 0.058; in experiment [1] (1 nM) it was 1.14 ± 0.058; in experiment [1] (5 nM) it was 0.963 ± 0.069; in experiment [1] (10 nM), 0.7417 ± 0.0035; in experiment [1] (50 nM) it was 0.388 ± 0.018; in experiment [1] (100 nM), 0.329 ± 0.03. Besides, the surviving fraction in experiment [1] (500 nM) was 0.258 ± 0.012; in experiment [1] (1000 nM), 0.341 ± 0.016; in experiment [2] (0.5 nM), 1.24 ± 0.083; in experiment [2] (1 nM) it was 1.26 ± 0.099; in experiment [2] (5 nM) it was 1.34 ± 0.087; in experiment [2] (10 nM), 1.37 ± 0.067. For the same test system, the surviving fraction came out at 0.917 ± 0.031 in experiment [2] (50 nM), 0.967 ± 0.15 in experiment [2] (100 nM), 0.805 ± 0.066 in experiment [2] (500 nM) and 0.82 ± 0.12 in experiment [2] (1000 nM).
For the test system ZR751 BREAST, the surviving fraction worked out at 1.12 ± 0.095 in experiment [1] (0.5 nM); 1.08 ± 0.16 in experiment [1] (1 nM); 0.786 ± 0.074 in experiment [1] (5 nM); 0.846 ± 0.12 in experiment [1] (10 nM); 0.585 ± 0.047 in experiment [1] (50 nM); 0.361 ± 0.054 in experiment [1] (100 nM). The surviving fraction in experiment [1] (500 nM) came out at 0.174 ± 0.018; in experiment [1] (1000 nM), 0.0463 ± 0.00058; in experiment [2] (0.5 nM), 0.853 ± 0.06; in experiment [2] (1 nM) it was 0.937 ± 0.16; in experiment [2] (5 nM), 0.799 ± 0.15; in experiment [2] (10 nM), 0.971 ± 0.12. For the same test system, the surviving fraction was 0.756 ± 0.036 in experiment [2] (50 nM), 0.857 ± 0.037 in experiment [2] (100 nM), 0.835 ± 0.15 in experiment [2] (500 nM) and 0.945 ± 0.06 in experiment [2] (1000 nM).
